This is an account of results in patent US10029993B2, “Disubstituted 1, 2, 4-triazine compound” (MITSUBISHI TANABE PHARMA CORPORATION, priority 2014, dated 2018).

The target in the test is human CYP11B2 (Homo sapiens (Human), UniProt P19099). As to the kind of experiment: Inhibitory effect on hCYP11B2 (aldosterone production by mitochondrial fraction of V79 cells stably expressing human CYP11B2, HTRF). It counts as biochemical. The following applies: 0.5 μmol/L deoxycorticosterone, 150 μmol/L NADPH, 1.5-2 hours at room temperature. The protocol: Experimental Example 1 (Inhibitory Effect on hCYP11B2)
Sequence of human CYP11B2 (P19099 25-503): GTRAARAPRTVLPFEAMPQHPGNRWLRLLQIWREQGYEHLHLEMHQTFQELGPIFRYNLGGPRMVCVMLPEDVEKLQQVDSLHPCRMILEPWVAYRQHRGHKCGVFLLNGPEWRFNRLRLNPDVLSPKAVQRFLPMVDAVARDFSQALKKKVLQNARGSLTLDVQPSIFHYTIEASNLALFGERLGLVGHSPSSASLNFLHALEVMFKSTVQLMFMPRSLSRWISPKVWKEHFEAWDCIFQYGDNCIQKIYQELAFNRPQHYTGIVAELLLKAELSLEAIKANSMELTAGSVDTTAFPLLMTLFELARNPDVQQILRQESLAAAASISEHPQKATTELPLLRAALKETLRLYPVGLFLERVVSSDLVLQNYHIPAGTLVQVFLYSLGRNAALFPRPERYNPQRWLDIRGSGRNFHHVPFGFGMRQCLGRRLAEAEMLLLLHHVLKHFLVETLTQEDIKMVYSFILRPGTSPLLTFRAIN
The pcDNA3.1-human CYP11B2 plasmid was transfected into a Chinese hamster lung fibroblast V79 cell line to produce a cell line stably expressing human CYP11B2 gene.
The cells were cultured and grown in the Dulbecco's modified Eagle's/Ham's medium supplemented with 10% fetal bovine serum and 1% G418 disulfate solution under the environment of 37° C., 95% air, and 5% CO2, and the grown cells were harvested.
Then, the cells were fractionated to obtain mitochondria by reference to a method described in Chabre et al. JCE 86 M 85 (11) 4060-68, 2000. In particular, the cells suspended in a 5 mmol/L Tris-HCl buffer (pH 7.4) containing 250 mmol/L sucrose were homogenized in a Teflon (Registered Trademark) Potter Elvehjem homogenizer, and then the suspension was centrifuged (800×g, 15 min.). The supernatant was separated and again centrifuged (10000×g, 15 min.) to obtain a pellet (mitochondrial fraction).
The mitochondrial fraction diluted with a buffer containing 10 mmol/L KH2PO4, 10 mmol/L Tris, 20 mmol/L KCl, 25 mmol/L sucrose, 5 mmol/L MgCl2, and 0.05% bovine serum albumin was dispensed to a 96-well plate. 0.5 μmol/L Deoxycorticosterone, 150 μmol/L NADPH and a compound of each concentration were added to each well, and incubated for 1.5-2 hours at room temperature to produce aldosterone. An amount of the produced aldosterone in the incubated solution was determined by using HTRF (Homogeneous Time Resolved Fluorescence) method.
IC 50 (nmol/L) was calculated by analyzing the aldosterone production inhibition rate (%) of each concentration of compounds by non-linear regression to a logistic curve.
For orientation: TR-FRET usually uses a lanthanide donor and a delayed reading to cut background.
Turning to `Clc1ccc(CNc2cnnc(N3CCOCC3)n2)cc1` [Example 257, 5-(4-chlorobenzyl) amino-3-morpholino-1,2,4-triazine], 0.013 µM corresponded to half-maximal inhibition (IC50).

With `CN(C)[C@@H]1CCC[C@H](NC(=O)CN2CCN(c3nncc(-c4ccc(F)cc4)n3)CC2)C1` [compound 160], the half-inhibitory concentration (IC50) – broadly, the concentration at which inhibition is half-maximal – is 0.013 µM. For `C[C@H]1COCCC1NC(=O)CN1CCN(c2nncc(-c3ccc(Cl)cc3)n2)CC1` (stereo partly drawn) [compound 161], the IC50 was 0.0061 µM.
